Laboratory results from ChEMBL document CHEMBL5233249, “Recent advancements in the development of heterocyclic anti-inflammatory agents” (Eur J Med Chem, 2020).

Key:
Mus musculus [1] = assay: Anti-inflammatory activity against dimethylbenzene-induced auricular edema Kunming mouse model assessed as inhibition of ear edema at 50 mg/kg, po administered once daily relative to control; format: functional; design: scale not given: the % may be the effect or the level left
Mus musculus [2] = assay: Anti-inflammatory activity against dimethylbenzene-induced auricular edema Kunming mouse model assessed as inhibition of ear edema at 100 mg/kg, po administered once daily relative to control; format: functional; design: scale not given: the % may be the effect or the level left
RAW264.7 [3] = assay: Anti-inflammatory activity in mouse RAW264.7 cells assessed as inhibition of LPS-induced TNFalpha production relative to control; format: functional; design: scale not given: the % may be the effect or the level left
RAW264.7 [4] = assay: Anti-inflammatory activity in mouse RAW264.7 cells assessed as inhibition of LPS-induced IL-6 production preincubated for 1 hr followed by LPS addition and measured after 24 hrs by EIA relative to control; format: functional; design: scale not given: the % may be the effect or the level left
Rattus norvegicus [5] = assay: Anti-inflammatory activity in Carrageenan-induced paw edema in Wistar albino rat assessed as inhibition of paw edema measured after 1 hr relative to control; format: functional
Rattus norvegicus [6] = assay: Anti-inflammatory activity in Carrageenan-induced paw edema in Wistar albino rat assessed as inhibition of paw edema measured after 2 hr relative to control; format: functional
[7] = target: T1, Prostaglandin G/H synthase 2 (Homo sapiens, UniProt P35354); assay: Inhibition of COX-2 (unknown origin) at 0.1 uM
T1 sequence (P35354 whole entry): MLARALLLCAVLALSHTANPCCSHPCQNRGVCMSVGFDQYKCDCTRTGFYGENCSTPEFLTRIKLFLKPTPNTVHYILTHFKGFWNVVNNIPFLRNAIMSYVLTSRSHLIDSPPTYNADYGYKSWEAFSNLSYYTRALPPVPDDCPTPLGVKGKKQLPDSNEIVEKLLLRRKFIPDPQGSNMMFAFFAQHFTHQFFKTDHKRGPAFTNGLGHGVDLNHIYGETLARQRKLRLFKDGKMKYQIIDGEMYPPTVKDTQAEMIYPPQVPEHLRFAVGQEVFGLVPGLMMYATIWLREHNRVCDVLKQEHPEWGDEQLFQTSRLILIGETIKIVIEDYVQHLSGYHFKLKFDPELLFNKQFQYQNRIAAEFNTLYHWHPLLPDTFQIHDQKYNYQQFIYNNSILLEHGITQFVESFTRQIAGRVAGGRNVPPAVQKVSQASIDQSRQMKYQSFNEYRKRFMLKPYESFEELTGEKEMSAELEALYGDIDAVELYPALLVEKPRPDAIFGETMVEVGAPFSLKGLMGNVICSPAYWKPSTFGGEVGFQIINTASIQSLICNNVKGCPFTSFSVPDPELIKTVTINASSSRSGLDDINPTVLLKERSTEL

Rattus norvegicus [8] = assay: Anti-inflammatory activity in Carrageenan-induced paw edema in Wistar albino rat assessed as inhibition of paw edema measured after 6 hr relative to control; format: functional
Rattus norvegicus [9] = assay: Anti-inflammatory activity against formalin-induced foot paw edema in PO dosed rat at 10 mg/kg assessed as inhibition of edema measured after 1 hr relative to control; format: functional; design: scale not given: the % may be the effect or the level left
Rattus norvegicus [10] = species: Rattus norvegicus; assay: Antinociceptive activity in Wistar rat assessed as hot-plate change in latency by hot plate test method relative to control; format: organism-based; conditions: in vivo
Rattus norvegicus [11] = assay: Anti-ulcerative activity in Carrageenan-induced paw edema Swiss albino rat ulcer model assessed as inhibition of ulcer index at 10 mg/kg,po; format: functional
Mus musculus [12] = assay: Analgesic activity in PO dosed Swiss albino mouse assessed as protection of paw edema measured after 2 hrs at 20 mg/kg relative to control; format: functional
RAW264.7 [13] = assay: Anti-inflammatory activity in mouse RAW264.7 cells assessed as inhibition of LPS-induced NO production; format: functional, cell-based
RAW264.7 [14] = assay: Anti-inflammatory activity in mouse RAW264.7 cells assessed as inhibition of LPS-induced TNFalpha production measured after 24 hrs by EIA method; format: functional, cell-based; conditions: RAW264.7, 24 h
RAW264.7 [15] = assay: Anti-inflammatory activity in mouse RAW264.7 cells assessed as inhibition of LPS-induced IL-6 production measured after 24 hrs by EIA method; format: functional, cell-based; conditions: RAW264.7, 24 h
Rattus norvegicus [16] = assay: Anti-inflammatory activity against carrageenan-induced Albino Wistar rat paw edema model assessed as inhibition of rat paw edema at 50 mg/kg, po after 3 hrs relative to control; format: functional; design: scale not given: the % may be the effect or the level left
Rattus norvegicus [17] = assay: Anti-inflammatory activity in Carrageenan-induced-Wistar albino rat model assessed as reduction in volume of paw edema measured after 3 hrs; format: functional
Rattus norvegicus [18] = assay: Anti-ulcerative activity in Carrageenan-induced Sprague-Dawley rat ulcer model assessed as inhibition of ulcer index at 10 mg/kg,po; format: functional
[19] = Selectivity index, ratio of IC50 for ovine COX1 to IC50 for recombinant human COX2
Rattus norvegicus [20] = assay: Anti-inflammatory activity against formalin-induced foot paw edema in PO dosed rat at 10 mg/kg assessed as reduction in volume of edema measured after 5 hr relative to control; format: functional; design: scale not given: the % may be the effect or the level left
Rattus norvegicus [21] = assay: Anti-ulcerative activity in aspirin induced Wistar rat ulcer model assessed as inhibition of ulcer index at 20 mg/kg,po; format: functional
Rattus norvegicus [22] = assay: Anti-inflammatory activity against formalin-induced foot paw edema in PO dosed rat at 10 mg/kg assessed as inhibition of edema measured after 4 hr relative to control; format: functional
Rattus norvegicus [23] = assay: Anti-inflammatory activity against formalin-induced foot paw edema in PO dosed rat at 10 mg/kg assessed as inhibition of edema measured after 5 hr relative to control; format: functional; design: scale not given: the % may be the effect or the level left
Rattus norvegicus [24] = assay: Anti-inflammatory activity in Wistar rat assessed as reduced hind paw edema at 25 mg/kg relative to control; format: functional; design: scale not given: the % may be the effect or the level left
Mus musculus [25] = assay: Anti-inflammatory activity in Carrageenan-induced paw edema in […] mouse model assessed as inhibition of edema at 200 mg/kg, po relative to control; format: functional; design: scale not given: the % may be the effect or the level left
Mus musculus [26] = assay: Anti-inflammatory activity in Carrageenan-induced paw edema mouse model assessed as inhibition of granuloma measured after 24 hrs relative to control; format: functional
Rattus norvegicus [27] = assay: Anti-inflammatory activity against formalin-induced foot paw edema in Wistar rat at 5 mg/kg, po assessed as inhibition of edema measured after 4 hr relative to control; format: functional
Rattus norvegicus [28] = assay: Anti-inflammatory activity in Carageenan-induced paw edema Wistar rat model assessed as reduction in paw edema volume relative to control; format: functional; design: scale not given: the % may be the effect or the level left

Q: What does the source list for c1ccc([Se]CC2CC(c3ccccc3)=NO2)cc1 (configuration not stated)?
A: Activity (Mus musculus [1]): 51%; Activity (Mus musculus [2]): 74%

Q: What does the source list for O=c1[nH]c(CCl)nc2sc3c(c12)CCCC3?
A: Activity (RAW264.7 [3]): 10%; Activity (RAW264.7 [4]): 90%

Q: With CC(=O)N(CN1C(=O)/C(=C\c2nnc(-c3ccc(-c4ccncc4)cc3)s2)c2ccccc21)C1C(c2ccc(O)cc2)=NNC1S (configuration not stated) as the compound, how does the “inhibition (INH)” value (Rattus norvegicus [5]) read?
A: 20%

Q: What about the “inhibition (INH)” value (Rattus norvegicus [6]) of the same compound?
A: 10.53%

Q: What about the IC50 [7] of the same compound?
A: 71.1 µM

Q: And the “inhibition (INH)” value (Rattus norvegicus [8])?
A: 57.14%

Q: Which Activity (Rattus norvegicus [9]) does the source give for CCOC(=O)c1c(SC)nn(C(=O)CSc2nnc(CCCOc3ccc(C)cc3C(=O)c3ccc(F)cc3)o2)c1N here?
A: 52.17%

Q: What about the Activity (Rattus norvegicus [10]) of the same compound?
A: 92.3%

Q: For CC1=NN(c2ccc(Cl)cc2)C(=O)/C1=N\Nc1ccc(-c2nc3ccccc3[nH]2)cc1, which UI (Rattus norvegicus [11]) is on record?
A: 0.53

Q: What about the Activity (Mus musculus [12]) of the same compound?
A: 67%

Q: Which IC50 (RAW264.7 [13]) does the source give for CCCCc1nn(C)c2c(NCCCN3CCOCC3)nc(/C=C/c3cc(OC)c(OC)c(OC)c3)nc12 here?
A: 5.63 µM

Q: And the IC50 (RAW264.7 [14])?
A: 4.38 µM

Q: And the IC50 (RAW264.7 [15])?
A: 2.64 µM

Q: What does the source list for NS(=O)(=O)c1ccc(N/N=C/c2cn(-c3ccc(S(N)(=O)=O)cc3)nc2-c2ccc(Cl)cc2)cc1?
A: Activity (Rattus norvegicus [16]): 97.69%; ED50 (Rattus norvegicus [17]): 8 mg/kg; UI (Rattus norvegicus [18]): 2.72

Q: With CS(=O)(=O)c1ccc(-n2cc(/C=C3\NC(=S)N(c4ccccc4)C3=O)c(-c3ccccc3)n2)cc1 as the compound, how does the Selectivity Index [19] read?
A: 9.15

Q: What about the Activity (Rattus norvegicus [20]) of the same compound?
A: 56%

Q: And the UI (Rattus norvegicus [21])?
A: 3.87

Q: Which inhibition in vivo at 10 mg/kg (Rattus norvegicus [22]) does the source give for Cc1ccc(-c2cc(C(F)(F)F)nn2-c2ccc(S(N)(=O)=O)cc2)cc1 [CELECOXIB] here?
A: 46.4%

Q: What about the Activity (Rattus norvegicus [23]) of the same compound?
A: 69%

Q: And the UI (Rattus norvegicus [21])?
A: 2.99

Q: What about the Activity (Rattus norvegicus [24]) of the same compound?
A: 57.14%

Q: And the UI (Rattus norvegicus [18])?
A: 2.93

Q: What about the Activity (Mus musculus [25]) of the same compound?
A: 17.5%

Q: What about the “inhibition (INH)” value (Mus musculus [26]) of the same compound?
A: 8.6%

Q: And the inhibition in vivo at 5 mg/kg (Rattus norvegicus [27])?
A: 46.4%

Q: And the Activity (Rattus norvegicus [28])?
A: 87.59%

Q: What about the Activity (Mus musculus [1]) of the same compound?
A: 79%

Q: And the Activity (Mus musculus [2])?
A: 36%
